ChEMBL document CHEMBL1201862, “PubChem BioAssay data set” (2004)
Counter-ions that a name gives are not always drawn. Activity calls are given as the source filed them.

Legend:
[1] = target: T1, Oxysterols receptor LXR-beta (Homo sapiens, UniProt P55055); experiment: LXR agonists, Gal4 luciferase reporter, dose response, counter-screen for ssDAF-12 agonist project, cell-based, luminescence, HEK293, S. stercoralis campaign (AID 720737); type: functional; details: read-out: IC50 (the source's name)
T1 sequence (P55055 whole entry): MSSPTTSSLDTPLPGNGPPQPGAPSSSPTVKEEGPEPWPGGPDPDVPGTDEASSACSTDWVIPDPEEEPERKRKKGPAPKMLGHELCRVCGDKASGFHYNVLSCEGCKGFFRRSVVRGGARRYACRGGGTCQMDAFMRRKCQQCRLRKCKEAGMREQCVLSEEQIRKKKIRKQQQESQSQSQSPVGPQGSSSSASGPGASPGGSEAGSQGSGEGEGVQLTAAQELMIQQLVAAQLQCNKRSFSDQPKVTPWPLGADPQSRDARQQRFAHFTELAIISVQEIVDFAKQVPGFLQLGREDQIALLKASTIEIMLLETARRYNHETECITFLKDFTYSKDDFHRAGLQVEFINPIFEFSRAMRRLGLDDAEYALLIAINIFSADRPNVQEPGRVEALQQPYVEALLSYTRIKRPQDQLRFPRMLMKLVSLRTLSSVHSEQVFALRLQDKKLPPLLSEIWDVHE

[2] = Luminescence-based cell-based high throughput dose response assay to identify activators of the DAF-12 from the parasite S. stercoralis (ssDAF-12).; type: functional
[3] = test system: INS1; experiment: beta cell apoptosis inhibitors, cytokine rescue, dose response, luminescence, retest (AID 449756); type: functional, cell-based; details: Rattus norvegicus;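 further: cell death triggered by IL-1 beta plus TNF-alpha plus IFN-gamma mixture; protective hits raise ATP signal compared with cytokine alone wells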
[4] = test system: Streptococcus; experiment: Group A Streptococcus viability loss, dose response, counter-screen for streptokinase expression inhibitor project, luminescence, BacTiterGlo (AID 1915); type: functional, organism-based;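 further: potency for reduction of bacterial viability or growth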
[5] = inhibitors of HIV Env-driven cell fusion, dose response, cherry-pick (AID 652057); type: functional, cell-based
[6] = ZM109 Env clade C HIV-1 fusion inhibitors, dose response, HeLa effector, CEM target cells, luciferase, cherry-pick (AID 652058); type: functional, cell-based
[7] = CEM21 lymphoblast cell cytotoxicity, dose response, cytotoxicity control for viral fusion inhibitor project, CellTiter-Glo luminescence, cherry-picked (AID 652042); type: functional, cell-based;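 further: potency for signal decrease meaning cytotoxicity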
[8] = inhibitors of clade B AD8 Env fusion, dose response, cell-based, cherry-pick (AID 652062); type: functional;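 further: luciferase signal from cell-cell fusion driven by HIV-1 clade B AD8 Env; potency is for inhibitors of fusion seen as a drop in luminescence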
[9] = off-target signal loss in HeLa-CEM21 co-culture – HeLa F-luc CTL cells, cherry-picked, counter-screen for HIV-1 Env fusion inhibitor project, dose response (AID 652040); type: functional, cell-based;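 further: potency for signal decrease marking cytotoxic or nonspecific inhibition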
[10] = test system: Streptococcus sp. 'group A'; experiment: growth inhibition of control SK(-) GAS strain, dose response, counter-screen for streptokinase expression inhibitor project, luminescence, kanamycin, BacTiterGlo, confirmation (AID 1900); type: functional, organism-based
[11] = target: Disintegrin and metalloproteinase domain-containing protein 17 (Homo sapiens, UniProt P78536); experiment: exosite inhibitors of ADAM17, dose response, biochemical (AID 743260)
Sequence of Disintegrin and metalloproteinase domain-containing protein 17 (P78536 whole entry, the tested form may be a part): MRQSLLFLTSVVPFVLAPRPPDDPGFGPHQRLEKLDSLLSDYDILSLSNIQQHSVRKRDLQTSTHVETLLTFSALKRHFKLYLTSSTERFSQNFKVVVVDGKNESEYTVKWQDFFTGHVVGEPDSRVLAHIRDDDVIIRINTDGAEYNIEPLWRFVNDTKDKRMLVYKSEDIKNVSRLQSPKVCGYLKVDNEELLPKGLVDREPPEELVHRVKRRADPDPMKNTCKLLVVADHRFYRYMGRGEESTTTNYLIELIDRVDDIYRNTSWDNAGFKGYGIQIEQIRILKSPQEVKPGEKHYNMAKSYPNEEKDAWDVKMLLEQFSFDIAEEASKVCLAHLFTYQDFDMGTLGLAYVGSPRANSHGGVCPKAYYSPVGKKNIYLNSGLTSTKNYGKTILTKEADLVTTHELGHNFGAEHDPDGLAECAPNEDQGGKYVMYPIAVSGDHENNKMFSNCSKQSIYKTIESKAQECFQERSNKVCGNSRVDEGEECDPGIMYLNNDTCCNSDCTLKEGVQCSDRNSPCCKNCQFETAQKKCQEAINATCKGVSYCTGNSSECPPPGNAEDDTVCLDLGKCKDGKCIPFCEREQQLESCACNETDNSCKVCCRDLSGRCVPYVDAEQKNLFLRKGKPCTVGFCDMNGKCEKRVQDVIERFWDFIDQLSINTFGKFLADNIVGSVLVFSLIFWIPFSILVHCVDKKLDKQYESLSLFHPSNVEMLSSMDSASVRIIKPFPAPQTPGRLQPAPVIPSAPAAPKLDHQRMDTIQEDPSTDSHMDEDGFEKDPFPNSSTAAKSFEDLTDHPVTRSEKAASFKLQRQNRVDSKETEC

[12] = test system: HEK293; experiment: inhibitors of LMP1-driven NF-kB reporter, dose response, cell-based, HEK293, luciferase, cherry-pick (AID 588343); type: functional; details: Homo sapiens
[13] = target: T2, Trace amine-associated receptor 1 (Homo sapiens, UniProt Q96RJ0); experiment: Fluorescence-based cell-based high throughput dose response assay to identify agonists of the human trace amine associated receptor 1 (TAAR1).; type: functional
T2 sequence (Q96RJ0 whole entry): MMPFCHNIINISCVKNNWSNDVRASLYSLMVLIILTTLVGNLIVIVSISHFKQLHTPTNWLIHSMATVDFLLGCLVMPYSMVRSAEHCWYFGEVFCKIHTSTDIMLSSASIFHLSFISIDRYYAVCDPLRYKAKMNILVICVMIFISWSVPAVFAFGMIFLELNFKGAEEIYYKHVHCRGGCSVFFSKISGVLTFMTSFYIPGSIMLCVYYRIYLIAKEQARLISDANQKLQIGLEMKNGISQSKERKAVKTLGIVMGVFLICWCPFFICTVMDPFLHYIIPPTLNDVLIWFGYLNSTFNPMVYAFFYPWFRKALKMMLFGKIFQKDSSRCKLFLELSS

[14] = cells; type: functional, cell-based
[15] = target: T2, Trace amine-associated receptor 1; experiment: Counterscreen for agonists of the human trace amine associated receptor 1 (hTAAR1): Fluorescence-based cell-based high throughput dose response assay to identify hTAAR1 agonist that also desensitize TAAR1 receptor response.; type: functional
[16] = cells; type: functional, cell-based; remark: listed apart in the source
[17] = ADAM10 protease inhibitors, dose response, selectivity assay for ADAM17 exosite inhibitor project, biochemical, FRET peptide substrate, recombinant human ADAM10 (AID 743259);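 further: ADAM10 enzyme cleaving a FRET peptide substrate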
[18] = cells
[19] = target: T1, Oxysterols receptor LXR-beta; type: functional, cell-based
[20] = T. cruzi intracellular amastigote growth inhibition, dose response, imaging, CA-I/72 strain, bovine embryo skeletal muscle, dry powder (AID 651885); type: functional, cell-based
[21] = growth inhibition of intracellular T. cruzi, dose response, cell-based, plate reader, dry powder samples (AID 651845); type: functional
[22] = intracellular Trypanosoma cruzi inhibitors in host cells – cell-based, plate reader, cherry-pick samples, set 3, dose response (AID 651818); type: functional;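 further: compounds incubated with infected cells for about four days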
[23] = T. cruzi growth inhibition in host cells, dose response, cell-based, plate reader, dry powder, set 2 (AID 652275); type: functional
[24] = HEK293T cytotoxicity, dose response, cytotoxicity control for miR-122 modulator project, cell-based, activator set, cherry-pick (AID 720690); type: functional;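 further: HEK293T human cells scored for general mammalian cytotoxicity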
[25] = NIH:OVCAR-3 ovarian cancer cell cytotoxicity, dose response, PAX8 inhibitor project, plate reader, dry powder samples (AID 743044); type: functional, cell-based
[26] = target: Paired box protein Pax-8 (Homo sapiens, UniProt Q06710); experiment: inhibitors of PAX8-driven TPO luciferase reporter, dose response, RMG-I cells, cherry-pick (AID 687027); type: functional, cell-based;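 further: luciferase reporter driven by Pax8 target thyroperoxidase promoter measured by SteadyGlo luminescence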
Sequence of Paired box protein Pax-8 (Q06710 whole entry): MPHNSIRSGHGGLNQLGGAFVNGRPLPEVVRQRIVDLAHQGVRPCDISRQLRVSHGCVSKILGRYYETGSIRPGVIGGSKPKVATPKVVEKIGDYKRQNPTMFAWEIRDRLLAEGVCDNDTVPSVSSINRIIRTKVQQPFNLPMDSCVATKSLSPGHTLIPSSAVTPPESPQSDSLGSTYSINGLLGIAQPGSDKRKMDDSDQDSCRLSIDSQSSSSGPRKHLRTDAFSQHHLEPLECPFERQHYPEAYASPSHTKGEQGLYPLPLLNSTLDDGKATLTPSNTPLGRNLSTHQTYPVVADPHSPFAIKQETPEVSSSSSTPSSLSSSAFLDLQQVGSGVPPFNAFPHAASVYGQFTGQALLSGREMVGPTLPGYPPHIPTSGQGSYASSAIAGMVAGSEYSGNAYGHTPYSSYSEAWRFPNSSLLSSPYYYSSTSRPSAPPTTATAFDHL

[27] = cytotoxicity in OVCAR8 ovarian cancer cells, dose response, PAX8 project, cell-based, plate reader, dry powder samples (AID 743197); type: functional; details: OVCAR-8
[28] = ADAM10 inhibitors, peptide cleavage, dose response, biochemical, QFRET (AID 743254);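 further: ADAM10 enzyme with the DM2 quenched FRET peptide as substrate; EDANS fluorescence gain as the protease cuts the substrate; inhibitor potency against ADAM10 proteolytic activity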
[29] = target: Potassium channel subfamily K member 3 (Homo sapiens, UniProt O14649); experiment: TASK1 (KCNK3) potassium channel inhibitors, SAR follow-up, CHO cells, FluxOR thallium flux (AID 652212); type: functional
Sequence of Potassium channel subfamily K member 3 (O14649 whole entry): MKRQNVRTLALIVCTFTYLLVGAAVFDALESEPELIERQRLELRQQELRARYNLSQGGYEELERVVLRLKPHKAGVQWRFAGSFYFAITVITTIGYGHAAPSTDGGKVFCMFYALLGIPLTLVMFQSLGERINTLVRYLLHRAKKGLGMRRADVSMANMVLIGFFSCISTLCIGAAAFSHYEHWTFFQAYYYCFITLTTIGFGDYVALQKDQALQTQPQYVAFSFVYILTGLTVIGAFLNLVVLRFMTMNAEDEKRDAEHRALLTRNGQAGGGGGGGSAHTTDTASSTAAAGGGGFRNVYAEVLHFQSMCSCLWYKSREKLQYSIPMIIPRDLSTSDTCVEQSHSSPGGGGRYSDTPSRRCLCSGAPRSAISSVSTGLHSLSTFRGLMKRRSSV

[30] = target: Potassium channel subfamily K member 9 (Homo sapiens, UniProt Q9NPC2); experiment: TASK3 (KCNK9) channel inhibitors, thallium flux, SAR follow-up, selectivity assay for TASK1 inhibitor project, cell-based, FluxOR thallium flux, concentration-response (AID 652211); type: functional;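 further: potency is for inhibitors of the channel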
Sequence of Potassium channel subfamily K member 9 (Q9NPC2 whole entry): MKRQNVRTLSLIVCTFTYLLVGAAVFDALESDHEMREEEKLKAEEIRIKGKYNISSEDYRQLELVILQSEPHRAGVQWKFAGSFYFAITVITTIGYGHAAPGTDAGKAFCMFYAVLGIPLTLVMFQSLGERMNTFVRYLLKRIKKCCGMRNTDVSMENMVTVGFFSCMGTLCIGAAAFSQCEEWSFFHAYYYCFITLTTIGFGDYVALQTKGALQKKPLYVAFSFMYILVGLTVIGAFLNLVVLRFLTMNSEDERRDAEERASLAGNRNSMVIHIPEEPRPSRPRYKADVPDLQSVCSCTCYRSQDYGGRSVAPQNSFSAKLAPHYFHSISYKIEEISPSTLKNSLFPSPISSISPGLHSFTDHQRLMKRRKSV

[31] = P. falciparum late gametocyte killing, dose response, luminescence (AID 1117278); type: functional, cell-based;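 further: gametocytes exposed to compound for 24 hours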
[32] = HEp-2 cell cytotoxicity, dose response, cytotoxicity control for RSV inhibitor project, HTS (AID 2410); type: functional; details: human respiratory syncytial virus
[33] = target: T3, Beta-2 adrenergic receptor (Homo sapiens, UniProt P07550); experiment: Dose response for HTS for Beta-2AR agonists via FAP method from Powderset3.; type: functional
T3 sequence (P07550 whole entry): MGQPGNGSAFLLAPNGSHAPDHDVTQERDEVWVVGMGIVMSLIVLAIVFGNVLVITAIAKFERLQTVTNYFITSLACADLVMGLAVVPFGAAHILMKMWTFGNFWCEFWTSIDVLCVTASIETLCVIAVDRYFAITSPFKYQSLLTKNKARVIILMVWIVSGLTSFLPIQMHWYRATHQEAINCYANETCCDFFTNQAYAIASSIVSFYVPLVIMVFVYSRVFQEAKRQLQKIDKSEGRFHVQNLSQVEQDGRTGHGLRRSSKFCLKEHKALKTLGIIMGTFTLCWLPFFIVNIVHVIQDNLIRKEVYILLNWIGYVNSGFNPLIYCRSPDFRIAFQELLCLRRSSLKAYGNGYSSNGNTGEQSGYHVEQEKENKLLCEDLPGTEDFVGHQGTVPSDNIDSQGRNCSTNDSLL

[34] = Jurkat T cell cytotoxicity, dose response, cytotoxicity control for P. falciparum gametocyte viability project, luminescence (AID 1117277); type: functional, cell-based;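 further: potency reflects loss of cellular ATP meaning fewer viable cells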
[35] = target: T4, Streptokinase A (Streptococcus pyogenes serotype M1, UniProt P10520); experiment: S. pyogenes streptokinase expression inhibitors, potency, dose response, plasminogen activation absorbance, OD405 (AID 1914); type: functional, Streptococcus pyogenes M1 GAS;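 further: secreted streptokinase activity via plasminogen activation per viability signal from cell pellet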
T4 sequence (P10520 whole entry): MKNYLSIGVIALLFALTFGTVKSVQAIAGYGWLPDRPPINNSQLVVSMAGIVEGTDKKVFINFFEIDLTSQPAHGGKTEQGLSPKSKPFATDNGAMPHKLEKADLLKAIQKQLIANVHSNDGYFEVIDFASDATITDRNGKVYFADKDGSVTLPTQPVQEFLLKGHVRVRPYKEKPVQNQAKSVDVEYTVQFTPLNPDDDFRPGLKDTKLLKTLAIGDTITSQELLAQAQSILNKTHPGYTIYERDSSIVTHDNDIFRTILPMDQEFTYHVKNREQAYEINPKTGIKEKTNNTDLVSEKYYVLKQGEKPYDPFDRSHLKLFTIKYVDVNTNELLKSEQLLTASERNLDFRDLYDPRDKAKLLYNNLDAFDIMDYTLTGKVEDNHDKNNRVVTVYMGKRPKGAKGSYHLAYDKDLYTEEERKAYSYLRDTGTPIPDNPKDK

[36] = target: T3, Beta-2 adrenergic receptor; experiment: beta2AR agonists driving receptor internalization, dose response, cell-based, FAP fluorogen, flow cytometry, cherry pick 1 (AID 588763); type: functional

With `O=C(CSc1nc2nncc-2c(O)[nH]1)Nc1nccs1` the EC50 [1] was > 67.6 µM (inactive) and the IC50 [2] was > 67.6 µM (inactive).

For `CCCCCCn1c(=O)c(C(=O)Nc2ncccc2C)c(O)c2ccccc21`, the AC50 [3] was 7.92 µM (active), the EC50 [4] was 1.98 µM (active) and the AC50 [5] was 5.24 µM (active). The AC50 [6] was 3.78 µM (active), the AC50 [7] was 28.6 µM (active) and the AC50 [8] was 4.02 µM (active). For the same molecule, the AC50 [9] was 5.77 µM (active) and the EC50 [10] was 0.566 µM (active).

With `C[C@H](NC(=O)c1nc[nH]c1C(=O)NC(c1ccccc1)c1ccccc1)C(=O)OCc1ccccc1` the IC50 [11] was > 69.5 µM (inactive).

For `O=C1CCCCC1Sc1nnc(-c2ccc3c(c2)OCO3)o1` (configuration not stated), the AC50 [5] was 2.73 µM (active), the AC50 [6] was 41.9 µM (active) and the AC50 [8] was 6.84 µM (active). The AC50 [9] was 12.3 µM (active) and the AC50 [12] was 0.841 µM (active).

With `O=C(Cc1nnc(NC(=O)Nc2ccccc2)s1)NCc1ccccc1` the EC50 [13] was > 29.9 µM (inactive), the EC50 [14] was > 29.9 µM (inactive) and the IC50 [15] was > 29.9 µM (inactive). For the same molecule, the IC50 [16] was > 29.9 µM (inactive).

With `O=C(Nc1cccc(Cl)c1)OCCOCCOC(=O)Nc1cccc(Cl)c1` the IC50 [11] was > 69.4 µM (inactive) and the IC50 [17] was 12.9 µM (inactive).

For `CC(C)(C)NC(=O)C(c1cc2ccccc2o1)n1c(-c2ccc(-c3ccccc3)cc2)nc2ccccc21` (configuration not stated), the EC50 [18] was > 67.6 µM (inactive), the EC50 [1] was > 67.6 µM (inactive) and the EC50 [19] was > 67.6 µM (inactive). The IC50 [2] was > 67.6 µM (inactive).

For `C[C@@H]1CN([C@H](C)CO)C(=O)c2cccc(NC(=O)c3ccncc3)c2O[C@H]1CN(C)Cc1ccc(C(F)(F)F)cc1`, the IC50 [20] was 0.048 µM (active), the AC50 [21] was 0.0597 µM (active) and the AC50 [22] was 0.344 µM (active). For the same molecule, the AC50 [23] was 0.0647 µM (active).

For `COc1ccc(S(=O)(=O)Nc2ccc3c(c2)CC(=O)N([C@@H](C)CO)C[C@@H](C)[C@H](CN(C)Cc2ccc(C(F)(F)F)cc2)O3)cc1`, the AC50 [24] was 25.5 µM (active), the AC50 [25] was 24.4 µM (active) and the AC50 [5] was 13.4 µM (active). The AC50 [8] was 18.5 µM (active), the AC50 [26] was 6.77 µM (active) and the AC50 [27] was 29.5 µM (active).

With `CNC(=O)[C@@H](NC(=O)[C@H](CC(C)C)[C@H](O)C(=O)NO)C(C)(C)C` the IC50 [17] was 0.0358 µM (active) and the IC50 [28] was 0.0607 µM (active).

With `O=C(Nc1cccc(NC(=O)c2ccccc2)c1)c1ccccc1` the IC50 [29] was 0.024 µM (active).

With `Cc1cccc(C(=O)Nc2cccc(NC(=O)c3ccccc3C(F)(F)F)c2)c1` the IC50 [30] was 12.9 µM (active).

For `CC(Oc1ccc(Cl)cc1Cl)c1nc(-c2ccc(NC(=O)c3ccco3)cc2)no1` (configuration not stated), the IC50 [31] was > 109 µM (inactive), the CC50 [32] was 20.2 µM (active) and the EC50 [4] was 25.7 µM (active). For the same molecule, the EC50 [33] was 0.204 µM (active), the IC50 [34] was > 83.3 µM (inactive) and the EC50 [35] was > 150 µM (not active). For the same molecule, the EC50 [36] was 7.06 µM (active) and the EC50 [10] was 21.7 µM (active).

For `c1ccc(CC2=NCCN2)cc1` [TOLAZOLINE HYDROCHLORIDE], the EC50 [13] was 1.01 µM (active), the EC50 [14] was > 29.9 µM (inactive) and the IC50 [15] was 4.74 µM (active). For the same molecule, the IC50 [16] was > 29.9 µM (inactive).
